Laboratory results published in patent publication US7429557B2, “Replacement solvents having improved properties and methods of using the same” (Mainstream Engineering Corporation, priority 2005, dated 2008).
Where two headings read alike, the source gives them in different places.

Legend:
[1] = Ames mutagenicity assay
Description: (§1) Skin irritation is also an important consideration for a solvent.

[2] = Skin irritation; details: in vivo
Description: as §1

[3] = tested on: Chinese hamster; experiment: In vitro genotoxicity; details: in vitro Chinese hamster oocytes
Description: as §1

[4] = LD50; details: in vivo
Description: Toxicity is yet another factor which must be considered when selecting second-generation replacement solvents. Parameters such as the lethal dose 50 (LD50), lethal concentration 50 (LC50), cardiac sensitization, skin irritation, and mutagenicity (e.g., via the Ames test) can be used as measures. LDn or LCn abbreviation, where n is the percent lethality, is used for the dose of a toxicant lethal to n % of a test population. […] Cardiac sensitization is a measure of the ability of a compound to cause cardiac arrhythmia under stress.
as §1

[5] = Coated metal coupon cleaning, gravimetric; details: Krytox, 15 minute immersion, 15 mL
Experimental: (§2) A sample comprising 25 volume percent (A.) 4-bromo-3-chloro-3,4,4-trifluoro-1-butene and 75 volume percent (B.) 1-chloro-2,2,2-trifluoroethyl difluoromethyl ether was added to several beakers, each containing a metal coupon completely coated with one of the following materials: Mil Spec 83282 hydraulic oil, Mil Spec 7808 engine oil, Krytox fluorocarbon grease and Mil Spec 81322 aviation grease. Two batches were subjected to 15 minute immersion with 15 mL of solvent mixture but one was exposed to ultrasonic vibrations and the other kept static. Afterwards, the coupons were removed and weighed for gravimetric analysis.
as §2, with “50” for “25”, “50” for “75”
(§3) Two batches were subjected to 15 minute immersion with 15 mL of solvent mixture but one was exposed to ultrasonic vibrations and the other kept static. Afterwards, the coupons were removed and weighed for gravimetric analysis.
The compounds (A) 4-bromo-3-chloro-3,4,4-trifluoro-1-butene and (B) 1-chloro-2,2,2-trifluoroethyl difluoromethyl ether, were mixed 50:50 by volume and tested to remove Krytox. The individual components, A and B, remove 17.0% and 98.7%, respectively, of this contaminant after 15 min. with ultrasonic treatment. The mixture removed 99.3% of the same contaminant under the same conditions.

[6] = listed; cited from earlier work
[7] = Coated metal coupon cleaning, gravimetric; details: 15 minute immersion, 15 mL
Experimental: as §2
as §2, with “50” for “25”, “50” for “75”
as §3

Row | Structure (SMILES) | Ames mutagenicity assay [1] | skin irritation [2] | genotoxicity [3] | LD50 [4] [mg/kg] | percent contaminant removed ([5]; Ultrasonic) [%] | skin irritation [6] | percent contaminant removed ([7]; 7808 oil, Static) [%] | percent contaminant removed ([7]; 7808 oil, Ultrasonic) [%] | percent contaminant removed ([7]; 81322 grease, Static) [%] | percent contaminant removed ([7]; 81322 grease, Ultrasonic) [%] | percent contaminant removed ([7]; 83282 oil, Static) [%] | percent contaminant removed ([7]; 83282 oil, Ultrasonic) [%] | percent contaminant removed ([5]; Static) [%]
1 | C=CC(F)(Cl)C(F)(F)Br (stereo not drawn) [A, 4-bromo-3-chloro-3,4,4-trifluoro-1-butene] | negative | moderate to non-irritants | not genotoxic | > 40000 | 17.0 | – | – | – | – | – | – | – | –
2 | FC(F)(Cl)C(F)(Cl)Cl [CFC-113, 1,1,2-trichloro-1,2,2-trifluoroethane] | – | – | – | – | 97.7 | mild irritant | 100 | 99.2 | 24.1 | 94.8 | 100 | 100 | 36.2
3 | FC(F)OC(Cl)C(F)(F)F (stereo not drawn) [Compound B, 1-chloro-2,2,2 trifluoroethyl difluoromethyl ether] | negative | moderate to non-irritants | not genotoxic | 8100 | 98.7 | – | – | – | – | – | – | – | –
4 | FC(F)OC(F)(F)C(F)Cl (stereo not drawn) [Compound C, 2-chloro-1,1,2-trifluoroethyl difluoromethyl ether] | negative | moderate to non-irritants | not genotoxic | 13000 | – | – | – | – | – | – | – | – | –
5 | COC(C(F)(F)F)C(F)(F)F [E, methyl 2,2,2-trifluoroethyl-1-(trifluoromethyl)ether] | negative | moderate to non-irritants | not genotoxic | > 40000 | – | – | – | – | – | – | – | – | –
